The values that follow come from patent US20230080054A1 (ILDONG PHARMACEUTICAL CO., LTD., priority 2021, published 2023).

The structures appear in SMILES notation.

Test [1] addresses T1, human ANO6 (Homo sapiens, UniProt Q4KMQ2).
T1 construct: expressed in transfected cells
T1 sequence (Q4KMQ2 1-931 isoform Q4KMQ2-2): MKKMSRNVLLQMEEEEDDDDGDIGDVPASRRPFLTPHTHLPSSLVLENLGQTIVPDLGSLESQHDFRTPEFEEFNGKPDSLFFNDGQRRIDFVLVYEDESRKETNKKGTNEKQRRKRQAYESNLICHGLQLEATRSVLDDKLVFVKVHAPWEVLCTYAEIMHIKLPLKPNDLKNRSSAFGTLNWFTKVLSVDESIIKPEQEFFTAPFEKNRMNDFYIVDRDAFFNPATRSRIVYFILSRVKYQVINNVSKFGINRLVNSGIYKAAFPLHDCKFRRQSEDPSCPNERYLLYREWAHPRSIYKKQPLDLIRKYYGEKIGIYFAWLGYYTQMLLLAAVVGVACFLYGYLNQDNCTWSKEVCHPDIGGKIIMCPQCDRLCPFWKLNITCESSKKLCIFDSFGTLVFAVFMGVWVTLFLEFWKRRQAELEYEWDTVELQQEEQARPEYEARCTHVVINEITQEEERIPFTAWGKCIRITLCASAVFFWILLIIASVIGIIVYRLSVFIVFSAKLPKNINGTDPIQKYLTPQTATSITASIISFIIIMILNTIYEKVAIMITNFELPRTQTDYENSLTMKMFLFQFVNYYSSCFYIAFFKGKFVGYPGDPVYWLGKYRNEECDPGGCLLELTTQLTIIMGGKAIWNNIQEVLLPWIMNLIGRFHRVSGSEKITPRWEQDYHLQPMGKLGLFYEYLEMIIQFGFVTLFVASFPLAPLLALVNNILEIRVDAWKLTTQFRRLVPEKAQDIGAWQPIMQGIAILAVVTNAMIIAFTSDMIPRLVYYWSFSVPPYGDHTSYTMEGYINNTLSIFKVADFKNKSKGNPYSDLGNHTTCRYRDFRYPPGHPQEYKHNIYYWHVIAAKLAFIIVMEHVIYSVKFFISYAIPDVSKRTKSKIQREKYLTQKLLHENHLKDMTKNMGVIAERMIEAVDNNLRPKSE
Description: YFP quenching assay (ANO6 ion channel activity). As to conditions: 10 μM ionomycin; for inhibition at 1 µM: test compound 1 μM, read-out: Inhibition Level 1 μM; for inhibition at 30 µM: test compound 30 μM, read-out: Inhibition Level 30 μM. In kind it is cell-based. A digest of the protocol:
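FRT cells stably expressing human ANO6 and YFP-H148Q/I152L/F46L, preincubated 10 min at 40° C with compounds (1% DMSO) in PBS. Quench read every 0.4 s after injecting 140 mM SCN- with 10 μM ionomycin; % inhibition from the 3.6–7.6 s fluorescence difference, normalised to no-ionomycin (100%) and ionomycin-only (0%) wells, duplicate or triplicate.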

Test [2] has as its target T1, human ANO6. Description: LACT C2 assay (phosphatidylserine scramblase function assay). In kind it is cell-based. The note with it: FRT cells expressing human ANO6, 10 μM ionomycin; for inhibition at 0.1 µM: test compound 100 nM, read-out: Inhibition Level 100 nM; for inhibition at 1 µM: test compound 1 μM, read-out: Inhibition Level 1 μM. A digest of the protocol:
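Inhibition was normalised between ionomycin-only (0%) and untreated (100%) wells, with triplicates averaged. Readout was background-corrected Lact-C2-GFP (500 nM) fluorescence from imaged cells. The cells were FRT cells stably expressing human ANO6, given compound at 1% DMSO for 10 min before a 10 min 10 μM ionomycin challenge.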

As for `O=C(NC1CCCCCC1)c1cccc(Nc2ccc(-c3ccc(F)cc3)nn2)c1` [Compound A3], on human ANO6 [1], the inhibition at 1 µM was ≥ 60% and the inhibition at 30 µM was ≥ 60%. Moreover, at human ANO6 [2], the inhibition at 0.1 µM is < 30% and the inhibition at 1 µM was ≥ 60%.

On to `O=C(NCCc1ccccc1)c1cccc(Nc2ccc(-c3ccc(F)cc3)nn2)c1` [Compound A4], for which, on human ANO6 [1], the inhibition at 1 µM was ≥ 60% and the inhibition at 30 µM was ≥ 60%. At human ANO6 [2], the inhibition at 0.1 µM was < 30% and the inhibition at 1 µM is < 30%.

`Cc1cccc(CNC(=O)c2cccc(Nc3ccc(-c4ccc(F)cc4)nn3)c2)c1` [Compound A5]: on human ANO6 [1], the inhibition at 1 µM was ≥ 60% and the inhibition at 30 µM was ≥ 60%. Besides, on human ANO6 [2], the inhibition at 0.1 µM was < 30% and the inhibition at 1 µM is < 30%.

In the case of `O=C(NCCCc1ccccc1)c1cccc(Nc2ccc(-c3ccc(F)cc3)nn2)c1` [Compound A6], on human ANO6 [1], the inhibition at 1 µM was ≥ 60% and the inhibition at 30 µM is ≥ 60%. Moreover, at human ANO6 [2], the inhibition at 0.1 µM was < 30% and the inhibition at 1 µM was < 30%.

On to `Cc1ccc(CNC(=O)c2cccc(Nc3ccc(-c4ccccc4)nn3)c2)o1` [Compound A8], for which, on human ANO6 [1], the inhibition at 1 µM is ≥ 60% and the inhibition at 30 µM was ≥ 60%. Further, on human ANO6 [2], the inhibition at 0.1 µM is < 30% and the inhibition at 1 µM was < 30%.

Consider `CCCCNC(=O)c1cccc(Nc2ccc(-c3ccc(F)cc3)nn2)c1` [Compound A10], for which, at human ANO6 [1], the inhibition at 1 µM is ≥ 60% and the inhibition at 30 µM is ≥ 60%. In addition, at human ANO6 [2], the inhibition at 0.1 µM was < 30% and the inhibition at 1 µM was < 30%.

Consider `CC(C)CNC(=O)c1cccc(Nc2ccc(-c3ccc(F)cc3)nn2)c1` [Compound A11], for which, on human ANO6 [1], the inhibition at 1 µM is ≥ 60% and the inhibition at 30 µM is ≥ 60%. Besides, at human ANO6 [2], the inhibition at 0.1 µM is < 30% and the inhibition at 1 µM was < 30%.

Regarding `CC(C)NC(=O)c1cccc(Nc2ccc(-c3ccccc3)nn2)c1` [Compound A12], at human ANO6 [1], the inhibition at 1 µM was ≥ 60% and the inhibition at 30 µM was ≥ 60%. At human ANO6 [2], the inhibition at 0.1 µM was < 30% and the inhibition at 1 µM was < 30%.

Consider `CC(C)CCNC(=O)c1cccc(Nc2ccc(-c3ccc(F)cc3)nn2)c1` [Compound A13], for which, on human ANO6 [1], the inhibition at 1 µM was ≥ 60% and the inhibition at 30 µM is ≥ 60%. Moreover, at human ANO6 [2], the inhibition at 0.1 µM was < 30% and the inhibition at 1 µM is 30 to 60%.

With `O=C(NC1CCCC1)c1cccc(Nc2ccc(-c3ccc(F)cc3)nn2)c1` [Compound A14], at human ANO6 [1], the inhibition at 1 µM is ≥ 60% and the inhibition at 30 µM was ≥ 60%. Further, on human ANO6 [2], the inhibition at 0.1 µM is < 30% and the inhibition at 1 µM is < 30%.

Consider `O=C(Nc1cccc(F)c1)c1cccc(Nc2ccc(-c3ccc(F)cc3)nn2)c1` [Compound A15], for which, at human ANO6 [1], the inhibition at 1 µM was ≥ 60% and the inhibition at 30 µM was ≥ 60%. Further, on human ANO6 [2], the inhibition at 0.1 µM is < 30% and the inhibition at 1 µM lay within 30 to 60%.

For the molecule `O=C(NCc1ccccc1)c1cccc(Nc2ccc(-c3ccc(F)cc3)nn2)c1` [Compound A16], at human ANO6 [1], the inhibition at 1 µM lay in the range of 30 to 60% and the inhibition at 30 µM is ≥ 60%. Further, at human ANO6 [2], the inhibition at 0.1 µM was < 30% and the inhibition at 1 µM was < 30%.

For the molecule `Cc1ccc(CNC(=O)c2cccc(Nc3ccc(-c4ccc(F)cc4)nn3)c2)cc1` [Compound A22], at human ANO6 [1], the inhibition at 1 µM is ≥ 60% and the inhibition at 30 µM was ≥ 60%. Moreover, at human ANO6 [2], the inhibition at 0.1 µM was < 30% and the inhibition at 1 µM is < 30%.

Consider `O=C(NCc1ccc(F)cc1)c1cccc(Nc2ccc(-c3ccccc3)nn2)c1` [Compound A24], for which the inhibition at 1 µM on human ANO6 [1] was ≥ 60%; on human ANO6 [2] it was 30 to 60%. For the same molecule, the inhibition at 30 µM at human ANO6 [1] is ≥ 60%.

Turning to `O=C(NCc1ccc(Br)cc1)c1cccc(Nc2ccc(-c3ccc(F)cc3)nn2)c1` [Compound A26], on human ANO6 [1], the inhibition at 1 µM is 30 to 60% and the inhibition at 30 µM is ≥ 60%. Moreover, on human ANO6 [2], the inhibition at 0.1 µM was < 30% and the inhibition at 1 µM was < 30%.

Turning to `CSc1ccc(CNC(=O)c2cccc(Nc3ccc(-c4ccc(F)cc4)nn3)c2)cc1` [Compound A27], on human ANO6 [1], the inhibition at 1 µM lay in the range of 30 to 60% and the inhibition at 30 µM was ≥ 60%. Further, on human ANO6 [2], the inhibition at 0.1 µM was < 30% and the inhibition at 1 µM is < 30%.

As for `Cc1cccc(-c2ccc(Nc3cccc(C(=O)NCC(C)C)c3)nn2)c1` [Compound A32], at human ANO6 [1], the inhibition at 1 µM was ≥ 60% and the inhibition at 30 µM is ≥ 60%. On human ANO6 [2], the inhibition at 0.1 µM is < 30% and the inhibition at 1 µM was < 30%.

In the case of `O=C(NCc1ccccc1)c1cccc(Nc2ccc(-c3cccc(F)c3)nn2)c1` [Compound A34], on human ANO6 [1], the inhibition at 1 µM was ≥ 60% and the inhibition at 30 µM is ≥ 60%. For the same molecule, at human ANO6 [2], the inhibition at 0.1 µM is < 30% and the inhibition at 1 µM is < 30%.

On to `Cc1ccccc1CNC(=O)c1cccc(Nc2ccc(-c3ccc(F)cc3)nn2)c1` [Compound A35], for which, on human ANO6 [1], the inhibition at 1 µM was ≥ 60% and the inhibition at 30 µM was ≥ 60%. Moreover, on human ANO6 [2], the inhibition at 0.1 µM is < 30% and the inhibition at 1 µM was < 30%.

In the case of `CC(C)c1ccc(CNC(=O)c2cccc(Nc3ccc(-c4ccc(F)cc4)nn3)c2)cc1` [Compound A36], at human ANO6 [1], the inhibition at 1 µM is ≥ 60% and the inhibition at 30 µM is ≥ 60%. In addition, at human ANO6 [2], the inhibition at 0.1 µM was < 30% and the inhibition at 1 µM was < 30%.

Consider `CCCCCCNC(=O)c1cccc(Nc2ccc(-c3ccccc3)nn2)c1` [Compound A37], for which, on human ANO6 [1], the inhibition at 1 µM was ≥ 60% and the inhibition at 30 µM was ≥ 60%. Further, at human ANO6 [2], the inhibition at 0.1 µM is 30 to 60% and the inhibition at 1 µM is ≥ 60%.

As for `CCCCCCCNC(=O)c1cccc(Nc2ccc(-c3ccccc3)nn2)c1` [Compound A38], at human ANO6 [1], the inhibition at 1 µM was ≥ 60% and the inhibition at 30 µM was ≥ 60%. In addition, at human ANO6 [2], the inhibition at 0.1 µM is ≥ 60% and the inhibition at 1 µM was ≥ 60%.

Regarding `O=C(NC1CCCCCC1)c1cccc(Nc2ccc(-c3ccccc3)nn2)c1` [Compound A39], on human ANO6 [1], the inhibition at 1 µM is 30 to 60% and the inhibition at 30 µM is ≥ 60%. Besides, at human ANO6 [2], the inhibition at 0.1 µM was ≥ 60% and the inhibition at 1 µM is ≥ 60%.

In the case of `O=C(NCCC1=CCCCC1)c1cccc(Nc2ccc(-c3ccccc3)nn2)c1` [Compound A40], at human ANO6 [1], the inhibition at 1 µM is ≥ 60% and the inhibition at 30 µM was ≥ 60%. Further, at human ANO6 [2], the inhibition at 0.1 µM is < 30% and the inhibition at 1 µM is ≥ 60%.

In the case of `CCN(CCNC(=O)c1cccc(Nc2ccc(-c3ccccc3)nn2)c1)Cc1ccccc1` [Compound A41], on human ANO6 [1], the inhibition at 1 µM was in the range of 30 to 60% and the inhibition at 30 µM was ≥ 60%. Further, on human ANO6 [2], the inhibition at 0.1 µM was < 30% and the inhibition at 1 µM was in the range of 30 to 60%.

As for `O=C(NCc1ccc(Br)cc1)c1cccc(Nc2ccc(-c3ccccc3)nn2)c1` [Compound A43], on human ANO6 [1], the inhibition at 1 µM is ≥ 60% and the inhibition at 30 µM is ≥ 60%. At human ANO6 [2], the inhibition at 0.1 µM was < 30% and the inhibition at 1 µM lay in the range of 30 to 60%.

With `CSc1ccc(CNC(=O)c2cccc(Nc3ccc(-c4ccccc4)nn3)c2)cc1` [Compound A44], on human ANO6 [1], the inhibition at 1 µM is 30 to 60% and the inhibition at 30 µM is ≥ 60%. Also, on human ANO6 [2], the inhibition at 0.1 µM was < 30% and the inhibition at 1 µM was in the range of 30 to 60%.

As to `O=C(NCCc1ccc(Cl)cc1)c1cccc(Nc2ccc(-c3ccccc3)nn2)c1` [Compound A45], on human ANO6 [1], the inhibition at 1 µM is ≥ 60% and the inhibition at 30 µM was ≥ 60%. Also, on human ANO6 [2], the inhibition at 0.1 µM lay in the range of 30 to 60% and the inhibition at 1 µM is ≥ 60%.

As for `O=C(NCc1ccccc1Cl)c1cccc(Nc2ccc(-c3ccccc3)nn2)c1` [Compound A46], at human ANO6 [1], the inhibition at 1 µM is 30 to 60% and the inhibition at 30 µM is ≥ 60%. On human ANO6 [2], the inhibition at 0.1 µM was < 30% and the inhibition at 1 µM is ≥ 60%.

For the molecule `CCCOc1ccc(CNC(=O)c2cccc(Nc3ccc(-c4ccccc4)nn3)c2)cc1` [Compound A47], on human ANO6 [1], the inhibition at 1 µM was ≥ 60% and the inhibition at 30 µM is ≥ 60%. Moreover, the inhibition at 0.1 µM at human ANO6 [2] was in the range of 30 to 60%.
